These results are taken from patent US20260028354A1, “TETRAHYDRONAPHTHALENE DERIVATIVES AS ESTROGEN RECEPTOR DEGRADERS” (REGENT OF THE UNIVERSITY OF MICHIGAN, priority 2022, published 2026).

A short description of the experiment: Western blot analysis for "B" compounds. In kind it is cell-based. To be noted: read-out: Traditional Western Degradation Potency (DC50). The method, boiled down: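 Compound-treated cells lysed in RIPA buffer with protease inhibitors; equal protein (BCA) run on 10% SDS-PAGE, transferred to PVDF and probed with target antibodies. Band intensities quantified by densitometry and normalized to GAPDH.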

For `O=C1CCC(N2C(=O)c3cc4c(cc3C2=O)CN(C(=O)C2CCN(CC3CN(c5ccc([C@@H]6c7ccc(O)cc7CC[C@@H]6c6ccccc6)cc5)C3)CC2)C4)C(=O)N1` (stereo partly drawn) [Compound B79, 2-(2,6-dioxopiperidin-3-yl)-6-(1-((1-(4-((1R,2S)-6-hydroxy-2-phenyl-1,2,3,4-tetrahydronaphthalen-1-yl)phenyl)azetidin-3-yl)methyl)piperidine-4-carbonyl)-6,7-dihydropyrrolo[3,4-f]isoindole-1,3(2H,5H)-dione], the DC50 is more than 100 nM.
Under `O=C1CCC(N2C(=O)c3cc4c(cc3C2=O)CN(CC(=O)N2CCC(N3CC(Oc5ccc([C@@H]6c7ccc(O)cc7CC[C@@H]6c6ccccc6)cc5)C3)CC2)C4)C(=O)N1` (stereo partly drawn) [Compound B121, 2-(2,6-dioxopiperidin-3-yl)-6-(2-(4-(3-(4-((1R,2S)-6-hydroxy-2-phenyl-1,2,3,4-tetrahydronaphthalen-1-yl)phenoxy)azetidin-1-yl)piperidin-1-yl)-2-oxoethyl)-6,7-dihydropyrrolo[3,4-f]isoindole-1,3(2H,5H)-dione] stands 10 to 100 nM.
Then `O=C1CCC(N2C(=O)c3cc4c(cc3C2=O)CN(CC2CCN(C(=O)C3CCN(c5ccc([C@@H]6c7ccc(O)cc7CC[C@@H]6c6ccccc6)cc5)CC3)CC2)C4)C(=O)N1` (mixture of isomers) [Compound B8, 2-(2,6-dioxopiperidin-3-yl)-6-((1-(1-(4-((1R,2S)-6-hydroxy-2-phenyl-1,2,3,4-tetrahydronaphthalen-1-yl)phenyl)piperidine-4-carbonyl)piperidin-4-yl)methyl)-6,7-dihydropyrrolo[3,4-f]isoindole-1,3(2H,5H)-dione], with 10 to 100 nM; and “2-(2,6-dioxopiperidin-3-yl)-6-(1-((1-(4-((1R,2S)-6-hydroxy-2- phenyl-1,2,3,4-tctrahydronaphthalcn-1-yl)phenyl)pipcridin-4- yl)methyl)piperidin-4-yl)-2,3,5,6-tetrahydropyrrolo[3,4- f]isoindole-1,7-dione [Compound B304]”, with more than 100 nM; and `O=C1CCC(N2C(=O)c3cc4c(cc3C2=O)CN(CC2CC3(CCN(C(=O)c5ccc([C@@H]6c7ccc(O)cc7CC[C@@H]6c6ccccc6)cc5)CC3)C2)C4)C(=O)N1` (stereo partly drawn) [Compound B289, 2-(2,6-dioxopiperidin-3-yl)-6-((7-(4-((1R,2S)-6-hydroxy-2-phenyl-1,2,3,4-tetrahydronaphthalen-1-yl)benzoyl)-7-azaspiro[3.5]nonan-2-yl)methyl)-6,7-dihydropyrrolo[3,4-f]isoindole-1,3(2H,5H)-dione], with more than 100 nM.
Consider `O=C1CCC(N2C(=O)c3cc4c(cc3C2=O)CN(C2CCC(C(=O)NC3CN(c5ccc([C@@H]6c7ccc(O)cc7CC[C@@H]6c6ccccc6)cc5)C3)CC2)C4)C(=O)N1` (stereo partly drawn) [Compound B98, 4-(6-(2,6-dioxopiperidin-3-yl)-5,7-dioxo-3,5,6,7-tetrahydropyrrolo[3,4-f]isoindol-2(1H)-yl)-N-(1-(4-((1R,2S)-6-hydroxy-2-phenyl-1,2,3,4-tetrahydronaphthalen-1-yl)phenyl)azetidin-3-yl)cyclohexane-1-carboxamide], for which the DC50 is more than 100 nM.
Then `O=C1CCC(N2C(=O)c3cc4c(cc3C2=O)CN(CC2CCC(NC3CN(c5ccc([C@@H]6c7ccc(O)cc7CC[C@@H]6c6ccccc6)cc5)C3)CC2)C4)C(=O)N1` (stereo partly drawn) [Compound B99, 2-(2,6-dioxopiperidin-3-yl)-6-((4-((1-(4-((1R,2S)-6-hydroxy-2-phenyl-1,2,3,4-tetrahydronaphthalen-1-yl)phenyl)azetidin-3-yl)amino)cyclohexyl)methyl)-6,7-dihydropyrrolo[3,4-f]isoindole-1,3(2H,5H)-dione], with more than 100 nM; and `O=C1CCC(N2C(=O)c3cc4c(cc3C2=O)CC2(C4)CN(C(=O)C3CCN(c4ccc([C@@H]5c6ccc(O)cc6CC[C@@H]5c5ccccc5)cc4)CC3)C2)C(=O)N1` (stereo partly drawn) [Compound B297, 2′-(2,6-dioxopiperidin-3-yl)-1-(1-(4-((1R,2S)-6-hydroxy-2-phenyl-1,2,3,4-tetrahydronaphthalen-1-yl)phenyl)piperidine-4-carbonyl)-5′,7′-dihydro-1′H-spiro[azetidine-3,6′-cyclopenta[f]isoindole]-1′,3′(2'H)-dione], with more than 100 nM.
Under `O=C1CCC(N2C(=O)c3cc4c(cc3C2=O)CN([C@H]2CC[C@H](C(=O)N3CC(Oc5ccc([C@@H]6c7ccc(O)cc7CC[C@@H]6c6ccccc6)cc5)C3)CC2)C4)C(=O)N1` (stereo partly drawn) [Compound B122, 2-(2,6-dioxopiperidin-3-yl)-6-((1S,4r)-4-(3-(4-((1R,2S)-6-hydroxy-2-phenyl-1,2,3,4-tctrahydronaphthalcn-1-yl)phenoxy)azetidine-1-carbonyl)cyclohexyl)-6,7-dihydropyrrolo[3,4-f]isoindole-1,3(2H,5H)-dione] stands 10 to 100 nM; under `O=C1CCC(N2C(=O)c3cc4c(cc3C2=O)CN(C2CCN(C(=O)C3CCN(c5ccc([C@@H]6c7ccc(O)cc7CC[C@@H]6c6ccccc6)cc5)CC3)CC2)C4)C(=O)N1` (stereo partly drawn) [Compound B7, 2-(2,6-dioxopiperidin-3-yl)-6-(1-(1-(4-((1R,2S)-6-hydroxy-2-phenyl-1,2,3,4-tetrahydronaphthalen-1-yl)phenyl)piperidine-4-carbonyl)piperidin-4-yl)-6,7-dihydropyrrolo[3,4-f]isoindole-1,3(2H,5H)-dione], less than 10 nM; under `O=C1CCC(N2C(=O)c3cc4c(cc3C2=O)CN(C(=O)[C@H]2CC[C@@H](N3CC(Nc5ccc([C@@H]6c7ccc(O)cc7CC[C@@H]6c6ccccc6)cc5)C3)CC2)C4)C(=O)N1` (stereo partly drawn) [Compound B129, 2-(2,6-dioxopiperidin-3-yl)-6-((1R,4s)-4-(3-((4-((1R,2S)-6-hydroxy-2-phenyl-1,2,3,4-tetrahydronaphthalen-1-yl)phenyl)amino)azetidin-1-yl)cyclohexane-1-carbonyl)-6,7-dihydropyrrolo[3,4-f]isoindole-1,3(2H,5H)-dione], more than 100 nM.
Under `O=C1CCC(N2C(=O)c3cc4c(cc3C2=O)CN(CC(=O)N2CC3(CCC(Oc5ccc([C@@H]6c7ccc(O)cc7CC[C@@H]6c6ccccc6)cc5)CC3)C2)C4)C(=O)N1` (stereo partly drawn) [Compound B278, 2-(2,6-dioxopiperidin-3-yl)-6-(2-(7-(4-((1R,2S)-6-hydroxy-2-phenyl-1,2,3,4-tetrahydronaphthalen-1-yl)phenoxy)-2-azaspiro[3.5]nonan-2-yl)-2-oxoethyl)-6,7-dihydropyrrolo[3,4-f]isoindole-1,3(2H,5H)-dione] stands more than 100 nM; under `CN(C1CCC(CN2Cc3cc4c(cc3C2)C(=O)N(C2CCC(=O)NC2=O)C4=O)CC1)C1CCN(c2ccc([C@@H]3c4ccc(O)cc4CC[C@@H]3c3ccccc3)cc2)CC1` (stereo partly drawn) [Compound B75, 2-(2,6-dioxopiperidin-3-yl)-6-((4-((1-(4-((1R,2S)-6-hydroxy-2-phenyl-1,2,3,4-tetrahydronaphthalen-1-yl)phenyl)piperidin-4-yl)(methyl)amino)cyclohexyl)methyl)-6,7-dihydropyrrolo[3,4-f]isoindole-1,3(2H,5H)-dione], more than 100 nM.
For the molecule `O=C1CCC(N2C(=O)c3cc4c(cc3C2=O)CN(C2CN(CC3CCN(c5ccc([C@@H]6c7ccc(O)cc7CC[C@@H]6c6ccccc6)cc5)CC3)C2)C4)C(=O)N1` (stereo partly drawn) [Compound B65, 2-(2,6-dioxopiperidin-3-yl)-6-(1-((1-(4-((1R,2S)-6-hydroxy-2-phenyl-1,2,3,4-tetrahydronaphthalen-1-yl)phenyl)piperidin-4-yl)methyl)azetidin-3-yl)-6,7-dihydropyrrolo[3,4-f]isoindole-1,3(2H,5H)-dione], the DC50 was more than 100 nM.
Under `O=C1CCC(N2C(=O)c3cc4c(cc3C2=O)CN(C(=O)C2CCN(C3CCN(c5ccc([C@@H]6c7ccc(O)cc7CC[C@@H]6c6ccc(F)cc6)cc5)CC3)CC2)C4)C(=O)N1` (mixture of isomers) [Compound B6, 2-(2,6-dioxopiperidin-3-yl)-6-(1′-(4-((1R,2S)-2-(4-fluorophenyl)-6-hydroxy-1,2,3,4-tetrahydronaphthalen-1-yl)phenyl)-[1,4'-bipiperidine]-4-carbonyl)-6,7-dihydropyrrolo[3,4-f]isoindole-1,3(2H,5H)-dione] stands less than 10 nM.
Then “3-(6-((1R,4r)-4-(3-((4-((1R,2S)-6-hydroxy-2-phenyl-1,2,3,4- tetrahydronaphthalen-1-yl)phenyl)amino)azetidin-1- yl)cyclohexane-1-carbonyl)-1-oxo-3,5,6,7- tetrahydropyrrolo[3,4-f]isoindol-2(1H)-yl)piperidine-2,6-dione [Compound B115]”, with more than 100 nM; and `O=C1CCC(N2C(=O)c3cc4c(cc3C2=O)CN(C(=O)[C@H]2CC[C@H](N3CC(Oc5ccc([C@@H]6c7ccc(O)cc7CC[C@@H]6c6ccccc6)cc5)C3)CC2)C4)C(=O)N1` (stereo partly drawn) [Compound B127, 2-(2,6-dioxopiperidin-3-yl)-6-((1S,4r)-4-(3-(4-((1R,2S)-6-hydroxy-2-phenyl-1,2,3,4-tetrahydronaphthalen-1-yl)phenoxy)azetidin-1-yl)cyclohexane-1-carbonyl)-6,7-dihydropyrrolo[3,4-f]isoindole-1,3(2H,5H)-dione], with more than 100 nM; and `O=C1CCC(N2C(=O)c3cc4c(cc3C2=O)CN(CC(=O)N2CCC3(CC2)CCN(c2cnc([C@H]5c6ccc(O)cc6CC[C@H]5c5ccccc5)cn2)CC3)C4)C(=O)N1` (mixture of isomers) [Compound B85, 2-(2,6-dioxopiperidin-3-yl)-6-(2-(9-(5-((1R,2R)-6-hydroxy-2-phenyl-1,2,3,4-tetrahydronaphthalen-1-yl)pyrazin-2-yl)-3,9-diazaspiro[5.5]undecan-3-yl)-2-oxoethyl)-6,7-dihydropyrrolo[3,4-f]isoindole-1,3(2H,5H)-dione], with more than 100 nM.
Then `O=C1CCC(N2C(=O)c3cc4c(cc3C2=O)CN(CC(=O)N2CCC3(CC2)CCN(c2ccc([C@@H]5c6ccc7[nH]ncc7c6CC[C@@H]5c5ccccc5)cc2)CC3)C4)C(=O)N1` (stereo partly drawn) [Compound B139, 2-(2,6-dioxopiperidin-3-yl)-6-(2-oxo-2-(9-(4-((6R,7S)-7-phenyl-6,7,8,9-tetrahydro-3H-benzo[e]indazol-6-yl)phenyl)-3,9-diazaspiro[5.5]undecan-3-yl)ethyl)-6,7-dihydropyrrolo[3,4-f]isoindole-1,3(2H,5H)-dione], with 10 to 100 nM.
